Measurements from PMC5557808 (Nature Communications, 2017).
Where a SMILES comes first, the peptide text is derived from it. [ ]: non-standard residue; d: D form. The star is where a group is joined. X1 = CC[N+](CC)(CC(=O)Nc1c(C)cccc1C)Cc1cccc(C(=O)*)c1; Aha = [N-]=[N+]=NCC[C@H](N)C(=O)O

Target: T1, Leucine aminopeptidase (AP) (Sus scrofa, UniProt P15145)
T1 construct: Leucine aminopeptidase (AP; Mw = 280 kDa) from porcine kidney; purchased Sigma-Aldrich Chemie, Schnelldorf, Germany; host or cells: porcine kidney (tissue-derived)
T1 sequence (P15145 1-963): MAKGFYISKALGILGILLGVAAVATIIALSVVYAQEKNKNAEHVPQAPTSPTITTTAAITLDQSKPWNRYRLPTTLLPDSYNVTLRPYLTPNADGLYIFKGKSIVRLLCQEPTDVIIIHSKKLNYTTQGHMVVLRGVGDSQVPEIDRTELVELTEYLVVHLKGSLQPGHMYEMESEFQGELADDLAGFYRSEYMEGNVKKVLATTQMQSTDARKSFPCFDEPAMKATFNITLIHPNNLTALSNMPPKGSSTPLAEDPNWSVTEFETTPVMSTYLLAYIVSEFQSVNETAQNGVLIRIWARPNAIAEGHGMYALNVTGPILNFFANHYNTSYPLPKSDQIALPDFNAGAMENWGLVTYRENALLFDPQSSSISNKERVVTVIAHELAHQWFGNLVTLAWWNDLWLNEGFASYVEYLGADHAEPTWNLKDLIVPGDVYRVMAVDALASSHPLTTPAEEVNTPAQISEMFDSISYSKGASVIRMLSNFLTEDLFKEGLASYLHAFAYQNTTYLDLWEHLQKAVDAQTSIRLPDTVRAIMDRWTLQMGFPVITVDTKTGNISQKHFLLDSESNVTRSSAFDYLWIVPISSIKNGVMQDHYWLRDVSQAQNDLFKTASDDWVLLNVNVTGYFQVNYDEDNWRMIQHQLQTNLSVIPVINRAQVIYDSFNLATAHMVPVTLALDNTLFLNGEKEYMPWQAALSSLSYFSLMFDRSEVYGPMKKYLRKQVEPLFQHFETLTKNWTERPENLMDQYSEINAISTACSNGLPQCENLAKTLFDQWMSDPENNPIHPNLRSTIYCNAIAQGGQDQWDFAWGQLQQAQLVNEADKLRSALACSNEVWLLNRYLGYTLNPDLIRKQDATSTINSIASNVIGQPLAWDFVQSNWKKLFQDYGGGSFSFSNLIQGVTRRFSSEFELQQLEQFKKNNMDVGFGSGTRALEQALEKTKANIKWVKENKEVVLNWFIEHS
Test: Aminopeptidase (AP) incubation
Type: biochemical, porcine
Settings: AP 3.1 nM (0.87 µg/mL), 30 min, 37 °C, after 22 h with 1800 ng/mL MMP-8; LC-MS
Method: Leucine aminopeptidase (AP; Mw = 280 kDa) from porcine kidney dissolved in AP buffer (50 mM Tris-HCl, 1 mM CaCl2, and 150 mM NaCl at pH 7.0) was used. L-leucine-p-nitroanilide (0.125 mg/mL) was used as control substrate. For AP digestion, 1 mg of purified lyophilized peptide was diluted in 2 mL AP buffer resulting in a final concentration of 0.5 mg/mL substrate. To evaluate the impact of AP concentration on peptide cleavage, AP was added at concentrations of 0 (negative control), 0.87, 8.7, 39, and 78 µg/mL and the samples were incubated at 37 °C for 1 h. For analysis of the AP incubation time, an AP concentration of 0.87 µg/mL was used and analyzed after 10, 20 min and 1, 2, 3, and 6 h. To stop the enzyme activity, samples were kept at 95 °C for 15 min. Afterwards, HPLC analyses were performed (as described in the Supplementary Information) to analyze the relative decrease of the main peak as compared to the negative control. Further details are given in the Supplementary Methods.
MMP -9) in a concentration of 0.4 ng/µL (50 µL) were mixed with MMP -8 buffer (37 µL), detection enz yme (5 µL) and substrate (8µL; all fro m Q uic kZ yme® ). The acti vi t y was meas ur ed for 12 hours in inter vals of 10 minutes. […]
Aminopeptidase (AP) incubation
Leucine A minopeptidase (AP; M w = 280 kD a) from porcine kidney dissolved in AP buffer (50 mM Tris-HCl, 1 mM CaCl2 and 150 mM NaCl at pH 7.0) was used. L-leu cin e-p-nitroan ilide (0.125mg/ mL) was used as control substr at e. […] Fo r anal ysis of the impact of AP incubation time, the identical conditions were used (AP concentration of 0.87 µg / mL (and analyzed after 10, 20 minutes and 1, 2, 3 and 6 hours ). To stop the enzymatic activit y, sa mp les wer e kept at 95 °C for 15 minutes. A fterwards, H PLC analys es were p erformed (as descr ibed) to an al yze th e relative d ecr eas e of the ma i n pea k as co mp ared to the negative control (see […]
V(B)/(V(A)+V(B)) = 5 % to 90 % over 10 min, V(B)/(V(A)+V(B)) = 90 % for 5 min, V(B)/(V(A)+V(B)) = 90 % to 5 % over 3 min. […] UV detection was measured at 254 nm. […]

## CC[C@H](C)[C@H](NC(=O)CNC(=O)[C@H](CCC(N)=O)NC(=O)[C@@H]1CCCN1C(=O)CNC(=O)c1cccc(C[N+](CC)(CC)CC(=O)Nc2c(C)cccc2C)c1)C(=O)N[C@@H](C)C(=O)NCC(=O)N[C@@H](CCC(N)=O)C(=O)N[C@@H](CCN=[N+]=[N-])C(=O)N[C@@H](CCC(N)=O)C(=O)O [ID #1c] (X1-GPQGIAGQ[Aha]Q-OH)
  effect of additional AP incubation after complete MMP-8 cleavage: no difference
